Experimental data as given in US20040063703A1, “Synergistic pesticide mixtures for the control of animal pests” (priority 2001, published 2004).

Assays:
[1] = system: caterpillars of the armyworm (Spodoptera frugiperda); assay: Spodoptera frugiperda test (kill rate, Colby); type: in vivo; conditions: cabbage leaf dip
Procedure: (§1) Spodoptera frugiperda Test
(§2) The kill rates determined are calculated using Colby's formula (see sheet 1).

[2] = system: caterpillars of the diamondback moth (Plutella xylostella, resistant strain); assay: Plutella test, resistant strain (LC95, Carpenter); type: in vivo; conditions: found
Text: Plutella Test, Resistant Strain

[3] = system: larvae of the mustard beetle (Phaedon cochleariae); assay: Phaedon larvae test (kill rate, Colby); type: in vivo; conditions: cabbage leaf dip
Procedure: as §2

[4] = system: larvae of the mustard beetle (Phaedon cochleariae); assay: Phaedon larvae test (LC50, Carpenter); conditions: found, cabbage leaf dip
[5] = system: caterpillars of the diamondback moth (Plutella xylostella, sensitive strain); assay: Plutella test, sensitive strain (LC95, Carpenter); type: in vivo; conditions: found
Text: Plutella Test, Sensitive Strain

[6] = system: Heliothis virescens caterpillars; assay: Heliothis virescens test (kill rate, Colby); type: in vivo; conditions: soya bean shoot dip
Procedure: as §2

[7] = system: caterpillars of the armyworm (Spodoptera frugiperda); assay: Spodoptera frugiperda test (LC50, Carpenter); type: in vivo; conditions: found, cabbage leaf dip
Text: as §1

[8] = system: normally sensitive caterpillars of the diamondback moth (Plutella xylostella); assay: Plutella test (normally sensitive) (kill rate, Colby); type: in vivo; conditions: normally sensitive strain
Procedure: Plutella Test (Normally Sensitive)
as §2

[9] = system: resistant caterpillars of the diamondback moth (Plutella xylostella); assay: Plutella test (resistant) (kill rate, Colby); type: in vivo; conditions: resistant strain
Procedure: Plutella Test (Resistant)
as §2

COC(=O)N(C(=O)N1CO[C@@]2(C(=O)OC)Cc3cc(Cl)ccc3C2=N1)c1ccc(OC(F)(F)F)cc1 [indoxacarb] was tested, and the “Kill rate in % after 6 days” value ([1]; 0.02 ppm) was 0%, the “LC95 after 6 days” value [2] was 0.234 ppm and the “Kill rate in % after 3 days” value ([3]; 0.5 ppm) was 20%. For the same compound, the “Kill rate in % after 6 days” value ([3]; 0.5 ppm) was 45%, the “LC50 after 6 days” value [4] was 0.1 ppm and the “LC95 after 6 days” value [5] was 0.531 ppm. The “Kill rate in % after 3 days” value ([6]; 0.1 ppm) was 0%, the “LC50 after 6 days” value [7] was 0.136 ppm and the “Kill rate in % after 6 days” value ([8]; 0.1 ppm) was 65%. For the same compound, the “Kill rate in % after 6 days” value ([9]; 0.1 ppm) was 55%.
With N#C/N=C1\SCCN1Cc1ccc(Cl)nc1 [thiacloprid, (Z)-3-(6-chloro-3-pyridylmethyl)-1,3-thiazolidin-2-ylidenecyanamide] the “Kill rate in % after 6 days” value ([3]; 3 ppm) was 0%, the “Kill rate in % after 6 days” value ([8]; 3 ppm) was 0% and the “Kill rate in % after 6 days” value ([9]; 3 ppm) was 0%.
O=[N+]([O-])/N=C1\NCCN1Cc1ccc(Cl)nc1 [imidacloprid, 1-[(6-chloro-3-pyridinyl)methyl]-N-nitro-2-imidazolidineimine] was tested, and the “Kill rate in % after 6 days” value ([1]; 0.6 ppm) was 0%, the “Kill rate in % after 3 days” value ([3]; 3 ppm) was 0% and the “Kill rate in % after 3 days” value ([6]; 3 ppm) was 15%.
With CN/C(=N\[N+](=O)[O-])NCc1cnc(Cl)s1 [clothianidin (X), (E)-1-(2-chloro-1,3-thiazol-5-yl-methyl)-3-methyl-2-nitroguanidine] the “LC95 after 6 days” value [2] was 50.722 ppm, the “LC50 after 6 days” value [4] was 2.372 ppm and the “LC95 after 6 days” value [5] was 26.037 ppm. For the same compound, the “LC50 after 6 days” value [7] was 0.662 ppm.
